According to ChEMBL document CHEMBL1140592, “Identification of novel, selective and potent Chk2 inhibitors” (Bioorg Med Chem Lett, 2007):

Biological target: Serine/threonine-protein kinase Chk2 (Homo sapiens, UniProt O96017)
Test: Inhibition of Chk2 kinase

Chain of Serine/threonine-protein kinase Chk2 (O96017 whole entry): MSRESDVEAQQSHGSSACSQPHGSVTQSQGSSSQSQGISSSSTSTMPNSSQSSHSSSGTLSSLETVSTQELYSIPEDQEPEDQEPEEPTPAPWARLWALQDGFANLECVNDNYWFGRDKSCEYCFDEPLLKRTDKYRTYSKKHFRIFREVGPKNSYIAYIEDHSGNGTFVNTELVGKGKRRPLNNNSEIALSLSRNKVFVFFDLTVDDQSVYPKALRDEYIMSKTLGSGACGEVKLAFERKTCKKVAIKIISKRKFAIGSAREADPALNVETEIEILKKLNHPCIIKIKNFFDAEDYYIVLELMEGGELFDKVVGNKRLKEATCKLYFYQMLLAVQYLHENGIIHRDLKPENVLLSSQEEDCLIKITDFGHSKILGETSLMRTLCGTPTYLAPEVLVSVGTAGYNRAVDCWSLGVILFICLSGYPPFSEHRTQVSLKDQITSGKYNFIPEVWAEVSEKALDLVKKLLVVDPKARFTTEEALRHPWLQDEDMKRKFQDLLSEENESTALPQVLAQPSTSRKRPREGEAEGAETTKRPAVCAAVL

Structure (SMILES) | IC50 [nM]
N=C(NCCCCO)c1c(O)nsc1Nc1ccc(Nc2ccc(Br)cc2)cc1 | 310
CC(C)NC(=N)c1c(O)nsc1Nc1ccc(Cc2ccccc2)cc1 | 8000
CC(CO)NC(=N)c1c(O)nsc1Nc1ccc(Nc2ccc(Br)cc2)cc1 (stereo not given) | 140
N=C(NCCO)c1c(O)nsc1Nc1ccc(Nc2ccccc2)cc1 | 1000
N=C(NCC1CCCCC1)c1c(O)nsc1Nc1ccc(C(=O)c2ccccc2)cc1 | 5000
N=C(NCc1cccc2ccccc12)c1c(O)nsc1Nc1ccc(Nc2ccc(Br)cc2)cc1 | 460
N=C(NCC1CCCCC1)c1c(O)nsc1Nc1ccc(Cc2ccccc2)cc1 | 37000
CCC[C@H]1CC[C@H](c2ccc(Nc3s[nH]c(=O)c3C(N)=NCC(O)CO)cc2)CC1 (stereo not given in full) | 17000
N=C(NCC1CCCCC1)c1c(O)nsc1Nc1ccc(Sc2ccccc2)cc1 | 19000
CC(C)NC(=N)c1c(O)nsc1Nc1ccc(S(=O)(=O)c2ccccc2)cc1 | > 40000
N=C(NCCO)c1c(O)nsc1Nc1ccc(Nc2ccc(Br)cc2)cc1 | 220
N=C(NCC(O)CO)c1c(O)nsc1Nc1ccc(Nc2ccc(Br)cc2)cc1 (stereo not given) | 470
CC(C)NC(=N)c1c(O)nsc1Nc1ccc(Oc2ccccc2)cc1 | 2300
NC(=NCC1CCCCC1)c1c(Nc2ccc(-n3cccn3)cc2)s[nH]c1=O | 40000
N=C(NCC1CCCCC1)c1c(O)nsc1Nc1ccc(Nc2ccccc2)cc1 | 1800

The next lines start with the values.

IC50 [nM] | Structure (SMILES)
11000 | CC(C)NC(=N)c1c(O)nsc1Nc1ccc(/N=N/c2ccccc2)cc1
1200 | N=C(NCCCCO)c1c(O)nsc1Nc1ccc(Nc2ccccc2)cc1
87 | CC(C)NC(=N)c1c(O)nsc1Nc1ccc(Nc2ccc(Br)cc2)cc1
19000 | CC(C)NC(=N)c1c(O)nsc1Nc1ccc(C2CCCCC2)cc1
11000 | N=C(NCC1CCCCC1)c1c(O)nsc1Nc1ccc(/N=N/c2ccccc2)cc1
420 | CC(C)NC(=N)c1c(O)nsc1Nc1ccc(Nc2ccccc2)cc1
300 | N=C(NCC1CCCCC1)c1c(O)nsc1Nc1ccc(Nc2ccc(Br)cc2)cc1
900 | N=C(NCC(O)CO)c1c(O)nsc1Nc1ccc(Nc2ccccc2)cc1 (stereo not given)
460 | CC(CO)NC(=N)c1c(O)nsc1Nc1ccc(Nc2ccccc2)cc1 (stereo not given)
> 40000 | CC(CO)NC(=N)c1c(O)nsc1Nc1ccc(-n2cccn2)cc1 (stereo not given)
